Reference: US7351714B2, “7-imino derivatives of camptothecin having antitumor activity” (priority 2004, dated 2008)

Assays:
[1] = test system: NCI H460; experiment: antiproliferative activity test (cytotoxic activity) on human tumour cells; assay type: cell-based; conditions: H-460
Protocol: Cytotoxic activity of the compounds of the present invention was assayed in cell systems of human tumour cells, using the antiproliferative activity test as a method of evaluation of the cytotoxic potential.
The cell line used is a lung non-small cell carcinoma that belongs to non-small cells hystotype named NCI H460.

[2] = test system: MKN-28 human gastric carcinoma; experiment: antitumor activity per os in athymic nude mice bearing s.c. tumor xenograft; assay type: in vivo; conditions: q4dx4; for TVI % (Tumor volume inhibition % in treated over control tumors): 11-12 day after last treatment
Excerpt: A compound is considered active when TVI %≧50.

[3] = cited from earlier work

Row | Structure (SMILES) | IC50 [1] | further results
1 | CC[C@@]1(O)C(=O)OCc2c1cc1n(c2=O)Cc2c-1nc1ccccc1c2C=Nc1ccccc1 [ST1546, 7-phenyliminomethylcamptothecin] | 130 nM | 
2 | CC[C@@]1(O)C(=O)OCc2c1cc1n(c2=O)Cc2c-1nc1ccccc1c2C=Nc1ccc([N+](=O)[O-])cc1 [ST1561, 7-(4-nitrophenyl)iminomethylcamptothecin] | 280 nM | 
3 | CC[C@@]1(O)C(=O)OCc2c1cc1n(c2=O)Cc2c-1nc1ccccc1c2C=Nc1ccccc1SSc1ccccc1N [ST1737, 7-2-(2-aminophenyldithio)phenyliminomethylcamptothecin] | 17 nM | Tox (Dead/treated mice) ([2]; 4 mg/kg per os): 0/4; TVI % (Tumor volume inhibition % in treated over control tumors) ([2]; 4 mg/kg per os): 69%; Tox (Dead/treated mice) ([2]; 7 mg/kg per os): 0/4; TVI % (Tumor volume inhibition % in treated over control tumors) ([2]; 7 mg/kg per os): 56%; BWL % (Body weight loss % induced by drug treatment) ([2]; 12 mg/kg per os): 4%; Tox (Dead/treated mice) ([2]; 12 mg/kg per os): 0/4; TVI % (Tumor volume inhibition % in treated over control tumors) ([2]; 12 mg/kg per os): 68%
4 | CC[C@@]1(O)C(=O)OCc2c1cc1n(c2=O)Cc2c-1nc1ccccc1c2C=Nc1ccc(SSc2ccc(N)cc2)cc1 [ST2034, 7-4-(4-aminophenyldithio)phenyliminomethylcamptothecin] | 390 nM | 
5 | CC[C@@]1(O)C(=O)OCc2c1cc1n(c2=O)Cc2c-1nc1ccccc1c2C=Nc1ccc(Sc2ccc(N)cc2)cc1 [ST2069, 7-4-(4-aminophenylthio)phenyliminomethylcamptothecin] | 240 nM | 
6 | CC[C@@]1(O)C(=O)OCc2c1cc1n(c2=O)Cc2c-1nc1ccccc1c2C=Nc1ccccc1SC [ST2138, 7-(2-methylthiophenyl)iminomethylcamptothecin] | 60 nM | 
7 | CC[C@@]1(O)C(=O)OCc2c1cc1n(c2=O)Cc2c-1nc1ccccc1c2C=Nc1ccccc1C [ST2212, 7-(2-methylphenyl)iminomethylcamptothecin] | 100 nM | 
8 | CC[C@@]1(O)C(=O)OCc2c1cc1n(c2=O)Cc2c-1nc1ccccc1c2C=Nc1ccccc1Cl [ST2228, 7-(2-chlorophenyl)iminomethylcamptothecin] | 70 nM | 
9 | CC[C@@]1(O)C(=O)OCc2c1cc1n(c2=O)Cc2c-1nc1ccccc1c2C=Nc1ccccc1I [ST2316, 7-(2-iodophenyl)iminomethylcamptothecin] | 60 nM | 
10 | CC[C@@]1(O)C(=O)OCc2c1cc1n(c2=O)Cc2c-1nc1ccccc1c2C=Nc1c(C)cccc1C [ST2317, 7-(2,6-dimethylphenyl)iminomethylcamptothecin] | 150 nM | 
11 | CC[C@@]1(O)C(=O)OCc2c1cc1n(c2=O)Cc2c-1nc1ccccc1c2C=Nc1ccccc1OC [ST2343, 7-(2-methoxyphenyl)iminomethylcamptothecin] | 60 nM | 
12 | CC[C@@]1(O)C(=O)OCc2c1cc1n(c2=O)Cc2c-1nc1ccccc1c2C=Nc1ccccc1C(C)(C)C [ST2388, 7-(2-t-butylphenyl)iminomethylcamptothecin] | 70 nM | 
13 | CC[C@@]1(O)C(=O)OCc2c1cc1n(c2=O)Cc2c-1nc1ccccc1c2C=Nc1ccccc1O [ST2389, 7-(2-hydroxyphenyl)iminomethylcamptothecin] | 60 nM | 
14 | CC[C@@]1(O)C(=O)OCc2c1cc1n(c2=O)Cc2c-1nc1ccccc1c2C=Nc1ccc(Cl)cc1 [ST2412, 7-(4-chlorophenyl)iminomethylcamptothecin] | 80 nM | 
15 | CC[C@@]1(O)C(=O)OCc2c1cc1n(c2=O)Cc2c-1nc1ccccc1c2C=Nc1ccc(OC)cc1 [ST2477, 7-(4-methoxyphenyl)iminomethylcamptothecin] | 160 nM | 
16 | CCC1(O)C(=O)OCc2c1cc1n(c2=O)Cc2c-1nc1ccccc1c2C=Nc1ccc(C)cc1 (stereo not shown) [ST2478, 7-(4-methylphenyl)iminomethylcamptothecin] | 180 nM | 
17 | CCC1(O)C(=O)OCc2c1cc1n(c2=O)Cc2c-1nc1ccccc1c2C=Nc1ccc(O)cc1 (stereo not shown) [ST 2616, 7-(4-hydroxyphenyliminomethyl)-camptothecin] | 220 nM | 
18 | CCC1(O)C(=O)OCc2c1cc1n(c2=O)Cc2c-1nc1ccccc1c2C=Nc1ccc(C(C)(C)C)cc1 (stereo not shown) [ST 2619, 7-(4-tert-butylphenyliminomethyl)-camptothecin] | 90 nM | 
19 | CCC1(O)C(=O)OCc2c1cc1n(c2=O)Cc2c-1nc1ccccc1c2C=Nc1ccc(SC)cc1 (stereo not shown) [ST 2667, 7-(4-methylthiophenyliminomethyl)-camptothecin] | 74 nM | 
20 | CC[C@@]1(O)C(=O)OCc2c1cc1n(c2=O)Cc2cc3c(CN(C)C)c(O)ccc3nc2-1 [Topotecan] |  | level in the cerebrospinal fluid with respect to plasma ([3]; 10 minutes after infusion): 30%; lactone form hydrolysed to open ring ([3]; 30 minutes after infusion): 50%
